Data from patent US9937151B2, “Carbapenem antibacterials with gram-negative activity” (priority 2010, dated 2018).
In brackets after ≈: the same amount, converted by molar mass.

Tested on: G(−) bacterial strains
Assay: Dilution antimicrobial susceptibility tests (MIC, NCCLS agar dilution / broth dilution)
Assay type: cell-based, Gram-negative organisms
Details: unit assumed
Protocol: The MIC (minimum inhibitory concentration) was determined by the NCCLS (National Committee for Clinical Laboratory Standards) methods 2000. Methods for dilution antimicrobial susceptibility testing for bacteria that growth aerobically (M7-A5, vol. 20, No. 2). The agar dilution method for determining antimicrobial susceptibility was carried out using Mueller-Hinton agar. A final inoculum of 10^4 CFU/spot was applied with an inoculation device. Broth dilution tests were performed with 5×10^5 CFU/well in 96 well plates. The susceptibilities of streptococci were determined by Mueller-Hinton agar supplemented with 5% sheep blood. All assays were run with the indicated control strains, available from the ATCC (American Type Culture Collection, Rockville, Md.).
Abbreviations used in Table 1 are defined as follows: Cf-R: Ceftazidime Resistance, Ci-R: Ciprofloxacin Resistance, Gen-R: Gentamycin Resistance, Imp-R: Imipenem Resistance, Mp-R: Meropenem Resistance, Ofx-R: Ofloxacin Resistance, B+: β-lactamase Production, AmpC: AmpC-lactamase Hyper production, CBPase: Carbapenemase Production.

[1] = strain #1 Acinetobacter calcoaceticus
[2] = strain #2 Acinetobacter baumannii, Cf-R, Ci-R
[3] = strain #3 Acinetobacter baumannii, Cf-R, Ci-R, Mp-I
[4] = strain #4 Acinetobacter baumannii, Cf-R, Imp-I, CBPase
[5] = strain #7 Enterobacter aerogenes
[6] = strain #8 Enterobacter cloacae, Cf-R, B+
[7] = strain #9 Enterobacter cloacae, Cf-R
[8] = strain #10 Escherichia coli, Ci-R
[9] = strain #11 Escherichia coli, Ci-R, AmpC
[10] = strain #15 Klebsiella pneumoniae
[11] = strain #16 Moraxella catarrhalis
[12] = strain #21 Providencia rettgeri
[13] = strain #22 Salmonella typhimurium
[14] = strain #25 Shigella dysenteriae
[15] = strain #28 Stenotrophomonas maltophilia
[16] = strain #29 Pseudomonas aeruginosa
[17] = strain #30 Pseudomonas aeruginosa
[18] = strain #31 Pseudomonas aeruginosa, Ofx-R
[19] = strain #32 Pseudomonas aeruginosa, Cf-R
[20] = strain #33 Pseudomonas aeruginosa, Ci-R
[21] = strain #34 Pseudomonas aeruginosa, Gen-R
[22] = strain #35 Pseudomonas aeruginosa, Ip-R
[23] = strain #36 Pseudomonas aeruginosa, Cf-R, Ci-R, Mp-R

Compound	MIC [1]	MIC [2]	MIC [3]	MIC [4]	MIC (strain #5 Citrobacter diversus)	MIC (strain #6 Citrobacter freundii)	MIC [5]	MIC [6]	MIC [7]	MIC [8]	MIC [9]	MIC (strain #12 Escherichia coli)	MIC (strain #13 Escherichia coli)	MIC (strain #14 Klebsiella oxytoca)	MIC [10]	MIC [11]	MIC (strain #17 Morganella Morganii)	MIC (strain #18 Morganella Morganii)	MIC (strain #19 Proteus vulgaris)	MIC (strain #20 Proteus mirabilis)	further results
C[C@@H](O)C1C(=O)N2C(C(=O)O)=C(CN3CC[C@H](N)C3)[C@H](C)C12 (stereo partly drawn) [Compound 27]	0.25 µg/mL (≈ 0.808 µM)	0.5 µg/mL (≈ 1.62 µM)	2 µg/mL (≈ 6.46 µM)	1 µg/mL (≈ 3.23 µM)	0.25 µg/mL (≈ 0.808 µM)	0.25 µg/mL (≈ 0.808 µM)	1 µg/mL (≈ 3.23 µM)	0.25 µg/mL (≈ 0.808 µM)	0.5 µg/mL (≈ 1.62 µM)	0.25 µg/mL (≈ 0.808 µM)	0.25 µg/mL (≈ 0.808 µM)	0.25 µg/mL (≈ 0.808 µM)	0.25 µg/mL (≈ 0.808 µM)	0.5 µg/mL (≈ 1.62 µM)	0.5 µg/mL (≈ 1.62 µM)	≤ 0.008 µg/mL	4 µg/mL (≈ 12.9 µM)	2 µg/mL (≈ 6.46 µM)	1 µg/mL (≈ 3.23 µM)	0.25 µg/mL (≈ 0.808 µM)	MIC [12]: 1 µg/mL (≈ 3.23 µM); MIC [13]: 0.25 µg/mL (≈ 0.808 µM); MIC (strain #23 Serratia marcescens): 0.5 µg/mL (≈ 1.62 µM); MIC (strain #24 Serratia marcescens): 1 µg/mL (≈ 3.23 µM); MIC [14]: 0.5 µg/mL (≈ 1.62 µM); MIC (strain #26 Shigella sonnei): 0.25 µg/mL (≈ 0.808 µM); MIC (strain #27 Shigella flexneri): 0.13 µg/mL (≈ 0.42 µM); MIC [15]: 0.13 µg/mL (≈ 0.42 µM); MIC [16]: 2 µg/mL (≈ 6.46 µM); MIC [17]: 2 µg/mL (≈ 6.46 µM); MIC [18]: 0.5 µg/mL (≈ 1.62 µM); MIC [19]: 2 µg/mL (≈ 6.46 µM); MIC [20]: 2 µg/mL (≈ 6.46 µM); MIC [21]: 2 µg/mL (≈ 6.46 µM); MIC [22]: 4 µg/mL (≈ 12.9 µM); MIC [23]: 8 µg/mL (≈ 25.9 µM)
CC(=O)N[C@H]1CCN(CC2=C(C(=O)O)N3C(=O)C([C@@H](C)O)C3[C@H]2C)C1 (stereo partly drawn) [Compound 32]	2 µg/mL (≈ 5.69 µM)	2 µg/mL (≈ 5.69 µM)	4 µg/mL (≈ 11.4 µM)	2 µg/mL (≈ 5.69 µM)	1 µg/mL (≈ 2.85 µM)	1 µg/mL (≈ 2.85 µM)	4 µg/mL (≈ 11.4 µM)	1 µg/mL (≈ 2.85 µM)	2 µg/mL (≈ 5.69 µM)	1 µg/mL (≈ 2.85 µM)	0.5 µg/mL (≈ 1.42 µM)	1 µg/mL (≈ 2.85 µM)	1 µg/mL (≈ 2.85 µM)	2 µg/mL (≈ 5.69 µM)	2 µg/mL (≈ 5.69 µM)	0.016 µg/mL (≈ 0.0455 µM)	8 µg/mL (≈ 22.8 µM)	4 µg/mL (≈ 11.4 µM)	4 µg/mL (≈ 11.4 µM)	1 µg/mL (≈ 2.85 µM)	MIC [12]: 4 µg/mL (≈ 11.4 µM); MIC [13]: 1 µg/mL (≈ 2.85 µM); MIC (strain #23 Serratia marcescens): 2 µg/mL (≈ 5.69 µM); MIC (strain #24 Serratia marcescens): 2 µg/mL (≈ 5.69 µM); MIC [14]: 1 µg/mL (≈ 2.85 µM); MIC (strain #26 Shigella sonnei): 1 µg/mL (≈ 2.85 µM); MIC (strain #27 Shigella flexneri): 0.5 µg/mL (≈ 1.42 µM); MIC [15]: 1 µg/mL (≈ 2.85 µM); MIC [16]: 16 µg/mL (≈ 45.5 µM); MIC [17]: 16 µg/mL (≈ 45.5 µM); MIC [18]: 4 µg/mL (≈ 11.4 µM); MIC [19]: 16 µg/mL (≈ 45.5 µM); MIC [20]: 16 µg/mL (≈ 45.5 µM); MIC [21]: 16 µg/mL (≈ 45.5 µM); MIC [22]: 32 µg/mL (≈ 91.1 µM); MIC [23]: > 32 µg/mL
C[C@@H](O)C1C(=O)N2C(C(=O)O)=C(CN3CC[C@H](NC(=O)C(F)(F)F)C3)[C@H](C)C12 (stereo partly drawn) [Compound 37]	2 µg/mL (≈ 4.93 µM)	4 µg/mL (≈ 9.87 µM)	8 µg/mL (≈ 19.7 µM)	4 µg/mL (≈ 9.87 µM)	0.5 µg/mL (≈ 1.23 µM)	0.5 µg/mL (≈ 1.23 µM)	2 µg/mL (≈ 4.93 µM)	0.5 µg/mL (≈ 1.23 µM)	1 µg/mL (≈ 2.47 µM)	0.5 µg/mL (≈ 1.23 µM)	0.5 µg/mL (≈ 1.23 µM)	0.5 µg/mL (≈ 1.23 µM)	0.5 µg/mL (≈ 1.23 µM)	0.5 µg/mL (≈ 1.23 µM)	1 µg/mL (≈ 2.47 µM)	≤ 0.008 µg/mL	2 µg/mL (≈ 4.93 µM)	2 µg/mL (≈ 4.93 µM)	1 µg/mL (≈ 2.47 µM)	0.5 µg/mL (≈ 1.23 µM)	MIC [12]: 1 µg/mL (≈ 2.47 µM); MIC [13]: 0.5 µg/mL (≈ 1.23 µM); MIC (strain #23 Serratia marcescens): 1 µg/mL (≈ 2.47 µM); MIC (strain #24 Serratia marcescens): 2 µg/mL (≈ 4.93 µM); MIC [14]: 0.5 µg/mL (≈ 1.23 µM); MIC (strain #26 Shigella sonnei): 0.5 µg/mL (≈ 1.23 µM); MIC (strain #27 Shigella flexneri): 0.25 µg/mL (≈ 0.617 µM); MIC [15]: 1 µg/mL (≈ 2.47 µM); MIC [16]: 8 µg/mL (≈ 19.7 µM); MIC [17]: 8 µg/mL (≈ 19.7 µM); MIC [18]: 4 µg/mL (≈ 9.87 µM); MIC [19]: 8 µg/mL (≈ 19.7 µM); MIC [20]: 8 µg/mL (≈ 19.7 µM); MIC [21]: 8 µg/mL (≈ 19.7 µM); MIC [22]: 16 µg/mL (≈ 39.5 µM); MIC [23]: 32 µg/mL (≈ 78.9 µM)
CN[C@H]1CCN(CC2=C(C(=O)O)N3C(=O)C([C@@H](C)O)C3[C@H]2C)C1 (stereo partly drawn) [Compound 43]	0.5 µg/mL (≈ 1.55 µM)	1 µg/mL (≈ 3.09 µM)	4 µg/mL (≈ 12.4 µM)	4 µg/mL (≈ 12.4 µM)	0.25 µg/mL (≈ 0.773 µM)	0.25 µg/mL (≈ 0.773 µM)	1 µg/mL (≈ 3.09 µM)	0.25 µg/mL (≈ 0.773 µM)	0.5 µg/mL (≈ 1.55 µM)	0.25 µg/mL (≈ 0.773 µM)	0.25 µg/mL (≈ 0.773 µM)	0.25 µg/mL (≈ 0.773 µM)	0.25 µg/mL (≈ 0.773 µM)	0.5 µg/mL (≈ 1.55 µM)	0.5 µg/mL (≈ 1.55 µM)	≤ 0.008 µg/mL	2 µg/mL (≈ 6.18 µM)	2 µg/mL (≈ 6.18 µM)	1 µg/mL (≈ 3.09 µM)	0.25 µg/mL (≈ 0.773 µM)	MIC [12]: 1 µg/mL (≈ 3.09 µM); MIC [13]: 0.5 µg/mL (≈ 1.55 µM); MIC (strain #23 Serratia marcescens): 1 µg/mL (≈ 3.09 µM); MIC (strain #24 Serratia marcescens): 1 µg/mL (≈ 3.09 µM); MIC [14]: 0.5 µg/mL (≈ 1.55 µM); MIC (strain #26 Shigella sonnei): 0.25 µg/mL (≈ 0.773 µM); MIC (strain #27 Shigella flexneri): 0.25 µg/mL (≈ 0.773 µM); MIC [15]: 0.5 µg/mL (≈ 1.55 µM); MIC [16]: 4 µg/mL (≈ 12.4 µM); MIC [17]: 2 µg/mL (≈ 6.18 µM); MIC [18]: 1 µg/mL (≈ 3.09 µM); MIC [19]: 4 µg/mL (≈ 12.4 µM); MIC [20]: 4 µg/mL (≈ 12.4 µM); MIC [21]: 4 µg/mL (≈ 12.4 µM); MIC [22]: 8 µg/mL (≈ 24.7 µM); MIC [23]: 16 µg/mL (≈ 49.5 µM)
C[C@@H](O)C1C(=O)N2C(C(=O)O)=C(CN3CC[C@H](N(C)C)C3)[C@H](C)C12 (stereo partly drawn) [Compound 46]	1 µg/mL (≈ 2.96 µM)	2 µg/mL (≈ 5.93 µM)	4 µg/mL (≈ 11.9 µM)	4 µg/mL (≈ 11.9 µM)	0.25 µg/mL (≈ 0.741 µM)	0.5 µg/mL (≈ 1.48 µM)	1 µg/mL (≈ 2.96 µM)	0.25 µg/mL (≈ 0.741 µM)	0.5 µg/mL (≈ 1.48 µM)	0.25 µg/mL (≈ 0.741 µM)	0.25 µg/mL (≈ 0.741 µM)	0.25 µg/mL (≈ 0.741 µM)	0.25 µg/mL (≈ 0.741 µM)	0.5 µg/mL (≈ 1.48 µM)	0.5 µg/mL (≈ 1.48 µM)	≤ 0.008 µg/mL	2 µg/mL (≈ 5.93 µM)	2 µg/mL (≈ 5.93 µM)	1 µg/mL (≈ 2.96 µM)	0.25 µg/mL (≈ 0.741 µM)	MIC [12]: 1 µg/mL (≈ 2.96 µM); MIC [13]: 0.25 µg/mL (≈ 0.741 µM); MIC (strain #23 Serratia marcescens): 1 µg/mL (≈ 2.96 µM); MIC (strain #24 Serratia marcescens): 1 µg/mL (≈ 2.96 µM); MIC [14]: 0.5 µg/mL (≈ 1.48 µM); MIC (strain #26 Shigella sonnei): 0.25 µg/mL (≈ 0.741 µM); MIC (strain #27 Shigella flexneri): 0.25 µg/mL (≈ 0.741 µM); MIC [15]: 0.5 µg/mL (≈ 1.48 µM); MIC [16]: 4 µg/mL (≈ 11.9 µM); MIC [17]: 4 µg/mL (≈ 11.9 µM); MIC [18]: 1 µg/mL (≈ 2.96 µM); MIC [19]: 4 µg/mL (≈ 11.9 µM); MIC [20]: 4 µg/mL (≈ 11.9 µM); MIC [21]: 4 µg/mL (≈ 11.9 µM); MIC [22]: 16 µg/mL (≈ 47.4 µM); MIC [23]: 32 µg/mL (≈ 94.8 µM)
